Results published in patent publication US9492405B2, “Use of fenoterol and fenoterol analogues in the treatment of glioblastomas and astrocytomas” (The United States of America, as represented by the …, priority 2010, dated 2016).
Values joined by “and” are separate entries in the source; they are usually repeats but may differ in a detail not shown here. Equal values may be shown once.

Key:
[1] = Brain-to-plasma distribution of [3H]-(R,R)-methoxyfenoterol after single IV dose; assay type: in vivo; details: rat, IV
Description: An overview of the research study design for evaluating the brain-to-plasma distribution of [^3H]
(specific activity 57 Ci/mmol); vehicle was sterile saline, 0.9% sodium chloride, USP. Dose formulations were prepared on the day of the study. The amount of radioactivity in the dose formulation was determined by liquid scintillation. The study lasted for an hour and radioactivity levels in plasma and brain tissue were evaluated at the conclusion of the study. Approximately 5 mls of whole blood was collected. Blood samples were collected via cardiac puncture, transferred into a tube containing K3EDTA as the anticoagulant and kept on wet ice until processed to plasma. To generate plasma, samples were centrifuged within 15 minutes of collection at 2,500 RPM for 15 minutes at room temperature. Plasma was divided equally into three labeled cryovials and stored on ample dry ice until transferred to a freezer set at ≦−20° C. for storage until analysis. Duplicate aliquots were weighed and then combined with scintillation cocktail. The [^3H] radioactivity was determined on a liquid scintillation counter. Brain samples were snap frozen in liquid nitrogen and stored at ≦−70° C. until analysis. Whole brain tissue was homogenized and the weight of the homogenate was determined. Duplicate aliquots from the homogenate were weighed, solubilized and then combined with scintillation cocktail. The [^3H] radioactivity was determined on a liquid scintillation counter.

[2] = test system: 1321N1 xenograft; assay: 1321N1 xenograft implanted in the flank of SKID mice; assay type: in vivo; details: IP twice a day; day 3-10 30 mg/kg/day, day 10-42 50 mg/kg/day
[3] = in vivo; details: rat, IV 5 mg/kg
Description: Dose calculations (mg/kg) were based on the individual body weight measured on the day of treatment. Study duration for pharmacokinetic studies was 6 hours. […] Urine was collected for 0-6 hours and 6 to 24 hours from 3 rats in each treatment group.
In the two-compartment model, the drug distributes into two compartments, the central compartment and the tissue, or peripheral compartment. The central compartment represents the blood, extracellular fluid, and highly perfused tissues. The drug distributes rapidly and uniformly in the central compartment. A second compartment, known as the tissue or peripheral compartment, contains tissues in which the drug equilibrates more slowly. Drug transfer between the two compartments is assumed to take place by first-order processes.
The following abbreviations are utilized in Table 4 below: alpha—macro rate constant associated with the distribution phase; beta—macro rate constant associated with the elimination phase; A, B—zero time intercept associated with the alpha phase and beta phase, respectively; AUC—area under the curve; T1/2 (K10)—half-life associated with the rate constant K10; K10—elimination rate—rate at which the drug leaves the system from the central compartment; K12—rate at which drug enters tissue compartment from the central compartment; K21—rate at which drug enters central compartment from tissue compartment; V1—volume of distribution of the central compartment; V2—volume of distribution of the tissue compartment; Vss—volume of distribution at steady state; and Cl—clearance.

[4] = biological target: β2-AR (Homo sapiens (Human), UniProt P07550); details: 1321N1; basal below 0.5 nmol/mg protein
β2-AR, sequence (P07550 whole entry): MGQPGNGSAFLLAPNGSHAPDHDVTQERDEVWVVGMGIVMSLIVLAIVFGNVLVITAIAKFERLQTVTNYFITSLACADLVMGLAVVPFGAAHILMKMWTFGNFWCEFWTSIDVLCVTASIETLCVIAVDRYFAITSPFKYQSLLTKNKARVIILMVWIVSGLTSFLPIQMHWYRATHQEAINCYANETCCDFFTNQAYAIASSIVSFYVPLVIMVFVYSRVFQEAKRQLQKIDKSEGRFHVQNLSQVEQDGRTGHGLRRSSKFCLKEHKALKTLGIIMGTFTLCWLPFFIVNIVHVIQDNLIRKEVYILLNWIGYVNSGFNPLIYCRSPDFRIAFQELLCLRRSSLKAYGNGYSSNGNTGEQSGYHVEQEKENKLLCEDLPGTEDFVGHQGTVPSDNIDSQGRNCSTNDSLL

[5] = test system: 1321N1 cells; assay: Cell cycle distribution by flow cytometry in 1321N1 cells; details: 1321N1 cells

Which “passage through the blood brain barrier” value [1] does the source give for `COc1ccc(C[C@@H](C)NC[C@H](O)c2cc(O)cc(O)c2)cc1.O=C(O)/C=C/C(=O)O` [(R,R)-2, (R,R)-(−)-1-p-Methoxyphenyl-2-(β-3′,5′-dihydroxy-phenyl-β-oxy)ethylaminopropane Fumarate] here?
The value was “capable of passing through the blood brain barrier”.

And the “growth of 1321N1 xenograft” value [2]?
Its value is “inhibits astrocytoma growth in vivo”.

And the AUC [3]?
The AUC was 96.1011 µg·min/mL.

What about the Cl [3] of the same compound?
Its Cl is 15.40 mL/min.

What about the K12 [3] of the same compound?
Its K12 is 0.1309 min⁻¹.

What about the K21 [3] of the same compound?
Its K21 is 0.0203 min⁻¹.

And the “T1/2 (K10)” value [3]?
Its value is 13.23 min.

What about the Vss [3] of the same compound?
The Vss was 2189.02 mL.

What about the “Plasma concentration, Average” value ([3]; 5 min) of the same compound?
The value was 2.12 µg/mL.

What about the “Plasma concentration, Average” value ([3]; 15 min) of the same compound?
Its value is 0.58 µg/mL.

What about the “Plasma concentration, Average” value ([3]; 30 min) of the same compound?
The value was 0.41 µg/mL.

And the “Plasma concentration, Average” value ([3]; 60 min)?
Its value is 0.26 µg/mL.

What about the “Plasma concentration, Average” value ([3]; 120 min) of the same compound?
Its value is 0.17 µg/mL.

And the “Plasma concentration, Average” value ([3]; 240 min)?
The value was 0.12 µg/mL.

What about the “Plasma concentration, Average” value ([3]; 300 min) of the same compound?
Its value is 0.07 µg/mL.

What about the Individual plasma concentration ([3]; 300 min, individual rats, listed as (R,R)-methoxyfenoterol) of the same compound?
The Individual plasma concentration was 0.06 ug/ml and 0.07 ug/ml (3×) and 0.09 ug/ml.

And the “Plasma concentration, Average” value ([3]; 360 min)?
Its value is 0.06 µg/mL.

And the V1 ([3]; central compartment)?
Its V1 is 294.01 mL.

What about the K10 ([3]; elimination rate) of the same compound?
Its K10 is 0.0524 min⁻¹.

And the V2 ([3]; tissue compartment)?
Its V2 is 1895.00 mL.

And the Alpha ([3]; two-compartment open model)?
Its Alpha is 0.1982 min⁻¹.

What about the Beta ([3]; two-compartment open model) of the same compound?
Its Beta is 0.0054 min⁻¹.

And the A ([3]; two-compartment open model, zero time intercept alpha phase)?
Its A is 4.6437 µg/mL.

And the B ([3]; zero time intercept beta phase)?
The B was 0.3900 µg/mL.

Which results are given for `C=C[C@@]1(C)CC(=O)[C@]2(O)[C@@]3(C)[C@@H](O)CCC(C)(C)[C@@H]3[C@H](O)[C@H](OC(C)=O)[C@@]2(C)O1` [forskolin, reference compound]?
intracellular concentration of cAMP after treatment [4]: ~4 nmol/mg protein; cell cycle arrest [5]: induced cell cycle arrest in G1 phase
